Results as given in patent publication US7932261B2, “Macrocycle derivatives useful as inhibitors of β-secretase (BACE)” (Janssen Pharmaceutica NV, priority 2006, dated 2011).
Like-named read-outs stand apart in the source and are kept apart here.

What was measured:
β-secretase (BACE) [1] = target: T1, β-secretase (BACE) (Homo sapiens, UniProt P56817); assay: in vitro BACE FS1 % Inhibition Assay (Example 13); format: biochemical; details: FS1 substrate, pH 5; for % Inhibition (Example 13) @ 0.3 μM / inhibition at 0.3 µM: 0.3 μM compound; for % Inhibition (Example 13) @ 1 μM / inhibition at 1 µM: 1 μM compound; for % Inhibition (Example 13) @ 3 μM / inhibition at 3 µM: 3 μM compound; for inhibition at 0.3 µM: read-out: % Inhibition (Example 13) @ 0.3 μM; for inhibition at 1 µM: read-out: % Inhibition (Example 13) @ 1 μM; for inhibition at 3 µM: read-out: % Inhibition (Example 13) @ 3 μM
T1 construct: purchased Panvera
T1 sequence (P56817 46-501): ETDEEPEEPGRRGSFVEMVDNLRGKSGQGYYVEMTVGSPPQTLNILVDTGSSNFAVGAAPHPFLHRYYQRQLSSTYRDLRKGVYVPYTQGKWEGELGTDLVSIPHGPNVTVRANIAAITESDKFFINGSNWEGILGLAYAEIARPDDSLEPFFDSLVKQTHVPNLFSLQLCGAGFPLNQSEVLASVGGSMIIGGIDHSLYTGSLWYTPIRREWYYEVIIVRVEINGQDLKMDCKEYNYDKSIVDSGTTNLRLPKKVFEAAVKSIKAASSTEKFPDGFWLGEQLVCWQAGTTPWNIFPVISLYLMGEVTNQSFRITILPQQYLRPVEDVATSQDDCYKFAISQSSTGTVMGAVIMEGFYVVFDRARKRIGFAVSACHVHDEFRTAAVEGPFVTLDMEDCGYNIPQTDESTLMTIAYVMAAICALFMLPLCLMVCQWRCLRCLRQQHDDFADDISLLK
Protocol: (§1) The following assay buffers were prepared and used in this assay: (1) enzyme assay buffer (0.05 M sodium acetate, pH5, 0.1% PEG8000 (w/v)), (2) substrate assay buffer (0.05 M sodium acetate, pH5), and (3) compound vehicle (30% DMSO in 50 mM HEPES, pH 7.4).
(§2) The FS1-substrate stock solution was prepared in DMSO as a 10 mg/mL solution. The FS1-substrate working solution was prepared by diluting the 10 mg/mL stock solution with substrate assay buffer to a final concentration of 300 μg/mL. The α-secretase (BACE) working solution was prepared by diluting a 0.83 mg/mL BACE stock solution with enzyme assay buffer to a final concentration of 4 μg/mL.
Test compounds were dissolved in DMSO to 10 mM.
(§3) The screening procedure for this assay was as follows: 15 μL of BACE working solution was pipetted into each well of a 96-well plate. To each well was then pipetted 2 μL of test compound at the selected concentration. Test compound and BACE were then mixed with a pipettor and incubated for 20 min at room temperature. To each well was then added 10 µL of the FS1 substrate working solution. The plates were then incubated for 1 hour at room temperature.
The procedure for the blank (negative control) was as follows. 15 μL of assay buffer was pipetted into each well to be used as a blank control. To each well was then added 2 μL of vehicle and 10 μL of FS1-substrate working solution. The plates were then incubated for 1 hour at room temperature.
(§4) The procedure for the positive control was as follows: 15 μL of BACE working solution was pipetted into each well to be used as a positive control. To each well was then pipetted 2 μL of vehicle. Vehicle and BACE were then mixed with a pipettor and incubated for 20 min at room temperature. To each well was then added 10 μL of the FS1 substrate working solution. The plates were then incubated for 1 hour at room temperature.
For test compounds, % inhibition was determined at each concentration as follows: […]

β-secretase (BACE) [2] = target: T1, β-secretase (BACE); assay: in vitro BACE Assay, Ki (Example 14); format: biochemical
Protocol: as §1
as §2, with “β-secretase” for “α-secretase”
Test compounds were dissolved in DMSO at 10 mM.
as §3, with “The” for “The screening”, “μL” for “µL”, “solution.” for “solution. The plates were then incubated for 1 hour at room temperature.”
as §4, with “solution.” for “solution. The plates were then incubated for 1 hour at room temperature.”
For test compounds, Ki inhibition was determined as follows: For each compound concentration and positive control, rate of cleavage of substrate (Vi, where i=compound concentration in μM) was determined as Δ Fluorescence/Δ time (min). Cleavage rates (Vi) were plotted as a function of inhibitor concentration in μM [I]. The Ki was then determined by fitting the following equation to the graph of [I] vs. Vi Y=aVmax/(50+24*(1+X/Ki)),

[3] = read-out: (Example 14) Ki, FS1 substrate 50 μM, Km 24 μM, pH 5

| Structure (SMILES) | % Inhibition (Example 13) @ 0.3 μM (β-secretase (BACE) [1]) [%] | % Inhibition (Example 13) @ 1 μM (β-secretase (BACE) [1]) [%] | % Inhibition (Example 13) @ 3 μM (β-secretase (BACE) [1]) [%] | inhibition at 0.3 µM (β-secretase (BACE) [1]) [%] | inhibition at 1 µM (β-secretase (BACE) [1]) [%] | inhibition at 3 µM (β-secretase (BACE) [1]) [%] | also measured |
| --- | --- | --- | --- | --- | --- | --- | --- |
| CC(C)[C@@H]1CC(=O)N(C2CCCCC2)CCCc2cccc(c2)Oc2ccc3c(c2)CN1C(N)=N3 [Compound 3] | 9 | 7 | 29 | – | – | – | – |
| NC1=Nc2ccc3cc2CN1CCCCC(=O)N(C1CCCCC1)CCCc1cccc(c1)O3 [Compound 4] | – | – | – | 100 | 115 | 120 | Ki (β-secretase (BACE) [2]): 44 nM |
| CC(C)[C@H]1CC(=O)N(C2CCCCC2)CCCc2cccc(c2)Oc2ccc3c(c2)CN1C(N)=N3 [Compound 5] | 3 | −6 | 43 | – | – | – | – |
| NC1=Nc2ccc3cc2CN1CCCNC(=O)CCc1cccc(c1)O3 [Compound 7] | – | – | – | – | – | – | % Inhibition (Example 13) @ 0.3 μM (β-secretase (BACE) [1]; 0.3 µM): 39%; % Inhibition (Example 13) @ 1 μM (β-secretase (BACE) [1]; 1 µM): 36%; % Inhibition (Example 13) @ 3 μM (β-secretase (BACE) [1]; 3 µM): 37% |
| NC1=Nc2ccc3cc2CN1CCCNC(=O)CCc1cccc(c1)O3 [Compound 9] | – | – | – | – | – | – | % Inhibition (Example 13) @ 0.3 μM (β-secretase (BACE) [1]; 0.3 µM): −26%; % Inhibition (Example 13) @ 1 μM (β-secretase (BACE) [1]; 1 µM): −21%; % Inhibition (Example 13) @ 3 μM (β-secretase (BACE) [1]; 3 µM): 1% |
| NC1=Nc2ccc3cc2CN1CCN(C(=O)C1CCCCC1)CCCc1cccc(c1)O3 [Compound 10] | −9 | 5 | 7 | – | – | – | – |
| NC1=Nc2ccc3cc2CN1CCNC(=O)CCC/C=C/c1ccccc1-3 [Compound 11] | – | – | – | -12 | 23 | 65 | – |
| NC1=Nc2ccc3cc2CN1CCCNC(=O)Cc1cccc(c1)O3 [Compound 12] | −18 | −0.4 | 11 | – | – | – | – |
| NC1=Nc2ccc3cc2CN1CCN(C1CCCCC1)C(=O)CCc1cccc(c1)O3 [Compound 15] | −36 | −31 | 10 | – | – | – | – |
| NC1=Nc2ccc3cc2CN1[C@@H](C1CCCCC1)CNC(=O)CCc1cccc(c1)O3 [Compound 16] | 39 | 37 | 61 | – | – | – | – |
| NC1=Nc2cc(F)c3cc2CN1[C@H](C1CCCCC1)CCC(=O)N(C1CCCCC1)CCc1cccc(c1)O3 [Compound 17] | – | – | – | 139 | 145 | 151 | Ki (β-secretase (BACE) [2]): 7.6 nM |
| COc1cc2c3cc1Oc1cccc(c1)CCN(C1CCCCC1)C(=O)CC[C@@H](C1CCCCC1)N(C3)C(N)=N2 [Compound 18] | – | – | – | 95 | 107 | 115 | – |
| NC1=Nc2ccc3cc2CN1[C@@H](C1CCCCC1)CCCN(C1CCCCC1)CCCc1cccc(c1)O3 [Compound 19] | – | – | – | 35 | 55 | 93 | Ki (β-secretase (BACE) [2]): 400 nM |
| CC(C)[C@@H]1CCC(=O)N(C2CCOCC2)CCc2cccc(c2)Oc2ccc3c(c2)CN1C(N)=N3 [Compound 20] | – | – | – | – | – | – | Ki (β-secretase (BACE) [2]; [3]): 22 nM |
| NC1=Nc2ccc3cc2CN1[C@H](C1CCOCC1)CCC(=O)NCCc1cccc(c1)O3 [Compound 21] | 54 | 88 | 110 | – | – | – | Ki (β-secretase (BACE) [2]; [3]): 100 nM |
